Data: ChEMBL document CHEMBL1151757, “Synthesis, radiosynthesis, and biological evaluation of fluorine-18-labeled 2beta-carbo(fluoroalkoxy)-3beta-(3'-((Z)-2-haloethenyl)phenyl)nortropanes: candidate radioligands for in vivo imaging of the serotonin transporter with positron emission tomography” (J Med Chem, 2008)

What was measured:
[1] = Ratio of drug uptake in caudate to cerebellum in awake rhesus monkey after 25 mins postinjection; assay type: ADME, organism-based, Macaca mulatta; details: in vivo
[2] = Drug uptake in awake rhesus monkey brain medulla after 10.5 mins postinjection; assay type: ADME, organism-based, Macaca mulatta; details: in vivo, 0.175 h
[3] = Drug uptake in awake rhesus monkey brain midbrain after 7.5 mins postinjection; assay type: ADME, organism-based, Macaca mulatta; details: in vivo, 0.125 h
[4] = Drug uptake in awake rhesus monkey brain midbrain after 85 mins postinjection; assay type: ADME, organism-based, Macaca mulatta; details: in vivo
[5] = Drug uptake in awake rhesus monkey brain midbrain after 55 mins postinjection; assay type: ADME, organism-based, Macaca mulatta; details: in vivo
[6] = Drug uptake in awake rhesus monkey brain midbrain after 105 mins postinjection; assay type: ADME, organism-based, Macaca mulatta; details: in vivo, 1.75 h
[7] = Ratio of drug uptake in pons to cerebellum in awake rhesus monkey after 10.5 mins postinjection; assay type: ADME, organism-based, Macaca mulatta; details: in vivo, 0.175 h
[8] = Drug uptake in awake rhesus monkey brain caudate after 55 mins postinjection; assay type: ADME, organism-based, Macaca mulatta, Caudate nucleus; details: in vivo
[9] = Drug uptake in awake rhesus monkey brain medulla after 55 mins postinjection; assay type: ADME, organism-based, Macaca mulatta; details: in vivo
[10] = Drug uptake in awake rhesus monkey brain pons after 65 mins postinjection; assay type: ADME, organism-based, Macaca mulatta; details: in vivo
[11] = Drug uptake in awake rhesus monkey brain thalamus after 95 mins postinjection; assay type: ADME, organism-based, Macaca mulatta; details: in vivo
[12] = Ratio of drug uptake in thalamus to cerebellum in awake rhesus monkey after 17.5 mins postinjection; assay type: ADME, organism-based, Macaca mulatta; details: in vivo
[13] = Drug uptake in awake rhesus monkey brain medulla after 7.5 mins postinjection; assay type: ADME, organism-based, Macaca mulatta; details: in vivo, 0.125 h
[14] = Ratio of drug uptake in pons to cerebellum in awake rhesus monkey after 7.5 mins postinjection; assay type: ADME, organism-based, Macaca mulatta; details: in vivo, 0.125 h
[15] = Drug uptake in awake rhesus monkey brain putamen after 65 mins postinjection; assay type: ADME, organism-based, Macaca mulatta; details: in vivo
[16] = Drug uptake in awake rhesus monkey brain putamen after 75 mins postinjection; assay type: ADME, organism-based, Macaca mulatta; details: in vivo, 1.25 h
[17] = Drug uptake in awake rhesus monkey brain frontal lobe after 105 mins postinjection; assay type: ADME, organism-based, Macaca mulatta; details: in vivo, 1.75 h
[18] = Ratio of drug uptake in midbrain to cerebellum in awake rhesus monkey after 7.5 mins postinjection; assay type: ADME, organism-based, Macaca mulatta; details: in vivo, 0.125 h
[19] = Drug uptake in awake rhesus monkey brain frontal lobe after 65 mins postinjection; assay type: ADME, organism-based, Macaca mulatta; details: in vivo
[20] = Ratio of drug uptake in medulla to cerebellum in awake rhesus monkey after 4.5 mins postinjection; assay type: ADME, organism-based, Macaca mulatta; details: in vivo, 0.075 h
[21] = Drug uptake in awake rhesus monkey brain frontal lobe after 13.5 mins postinjection; assay type: ADME, organism-based, Macaca mulatta; details: in vivo, 0.225 h
[22] = Drug uptake in awake rhesus monkey brain caudate after 4.5 mins postinjection; assay type: ADME, organism-based, Macaca mulatta, Caudate nucleus; details: in vivo, 0.075 h
[23] = Drug uptake in awake rhesus monkey brain cerebellum after 45 mins postinjection; assay type: ADME, organism-based, Macaca mulatta; details: in vivo, 0.75 h
[24] = Drug uptake in awake rhesus monkey brain caudate after 95 mins postinjection; assay type: ADME, organism-based, Macaca mulatta, Caudate nucleus; details: in vivo
[25] = Drug uptake in awake rhesus monkey brain medulla after 35 mins postinjection; assay type: ADME, organism-based, Macaca mulatta; details: in vivo
[26] = Drug uptake in awake rhesus monkey brain frontal lobe after 75 mins postinjection; assay type: ADME, organism-based, Macaca mulatta; details: in vivo, 1.25 h
[27] = Drug uptake in awake rhesus monkey brain thalamus after 65 mins postinjection; assay type: ADME, organism-based, Macaca mulatta; details: in vivo
[28] = Drug uptake in awake rhesus monkey brain cerebellum after 10.5 mins postinjection; assay type: ADME, organism-based, Macaca mulatta; details: in vivo, 0.175 h
[29] = Drug uptake in awake rhesus monkey brain midbrain after 35 mins postinjection; assay type: ADME, organism-based, Macaca mulatta; details: in vivo
[30] = Drug uptake in awake rhesus monkey brain thalamus after 10.5 mins postinjection; assay type: ADME, organism-based, Macaca mulatta; details: in vivo, 0.175 h
[31] = Drug uptake in awake rhesus monkey brain putamen after 95 mins postinjection; assay type: ADME, organism-based, Macaca mulatta; details: in vivo
[32] = Drug uptake in awake rhesus monkey brain caudate after 25 mins postinjection; assay type: ADME, organism-based, Macaca mulatta, Caudate nucleus; details: in vivo
[33] = Drug uptake in awake rhesus monkey brain caudate after 13.5 mins postinjection; assay type: ADME, organism-based, Macaca mulatta, Caudate nucleus; details: in vivo, 0.225 h
[34] = Drug uptake in awake rhesus monkey brain pons after 75 mins postinjection; assay type: ADME, organism-based, Macaca mulatta; details: in vivo, 1.25 h
[35] = Drug uptake in awake rhesus monkey brain medulla after 85 mins postinjection; assay type: ADME, organism-based, Macaca mulatta; details: in vivo

O=C(OCC[18F])C1C2CCC(CC1c1ccc(/C=C\I)cc1)N2 (stereo not given)
Ratio [1]: 1.3
Drug uptake [2]: 1.79
Drug uptake [3]: 1.35
Drug uptake [4]: 2.99
Drug uptake [5]: 2.76
Drug uptake [6]: 3.24
Ratio [7]: 0.9
Drug uptake [8]: 3.11
Drug uptake [9]: 2.48
Drug uptake [10]: 2.49
Drug uptake [11]: 3.79
Ratio [12]: 1.3
Drug uptake [13]: 1.51
Ratio [14]: 0.9
Drug uptake [15]: 3.31
Drug uptake [16]: 3.38
Drug uptake [17]: 2.07
Ratio [18]: 1
Drug uptake [19]: 2.25
Ratio [20]: 1.3
Drug uptake [21]: 1.57
Drug uptake [22]: 1.17
Drug uptake [23]: 1.93
Drug uptake [24]: 3.19
Drug uptake [25]: 2.46
Drug uptake [26]: 2.18
Drug uptake [27]: 3.48
Drug uptake [28]: 1.66
Drug uptake [29]: 2.7
Drug uptake [30]: 1.89
Drug uptake [31]: 3.34
Drug uptake [32]: 2.75
Drug uptake [33]: 1.87
Drug uptake [34]: 2.75
Drug uptake [35]: 2.66
